Results as given in US20240417410A1, “TRICYCLIC COMPOUNDS FOR THE TREATMENT OF CANCER” (Hoffmann-La Roche Inc., priority 2023, published 2024).

What was measured:
SW620 cells (KRAS G12V) = test: Cell viability assay (Cell Counting Kit-8, 3-day); type: cell-based, human; conditions: Homo sapiens, SW-620; SW620, 72 hrs incubation
Method in brief: (§1)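 Cells seeded at 5,000/well (NCI-H358) or 2,000/well (AGS, SW620), treated next day at 0.5% final DMSO for 72 h. Viability read by CCK-8 (OD450 minus OD650) after 2 h; IC50 from 4-parameter sigmoidal fit.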

[1] = test system: NCI-H358 cells (KRAS G12C); test: Cell viability assay (Cell Counting Kit-8, 3-day); type: cell-based, human; conditions: Homo sapiens, NCI-H358, 72 h, NCI-H358, 72 hrs incubation
Method in brief: as §1

AGS cells (KRAS G12D) = test: Cell viability assay (Cell Counting Kit-8, 3-day); type: cell-based, human; conditions: Homo sapiens, 72 h, 72 hrs incubation
Method in brief: as §1

[2] = test system: phosphorylation of ERK, KRAS G12V in SW620; test: pERK inhibition assay; type: cell-based; conditions: Homo sapiens, SW-620, 4 h, SW620 cells
Method in brief: (§2)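 Phospho-ERK quantified by in-cell ELISA with TMB read-out at OD450 following 4 h compound exposure (final 0.5% DMSO). Cell lines were SW620 (KRAS G12V), AGS (G12D) and NCI-H358 (G12C), grown in RPMI-1640 with 10% FBS. A 4-parameter sigmoidal model gave the IC50.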

[3] = test system: phosphorylation of ERK, KRAS G12D in AGS cells; test: pERK inhibition assay; type: cell-based; conditions: Homo sapiens, AGS, 4 h
Method in brief: as §2

[4] = test system: phosphorylation of ERK, KRAS G12C in NCI-H358 cells; test: pERK inhibition assay; type: cell-based; conditions: Homo sapiens, NCI-H358, 4 h
Method in brief: as §2

KRAS G12C-BRAF complex = KRAS G12C-BRAF complex (Homo sapiens (Human), UniProt P01116+P62937, G12C); test: KRAS-BRAF with CYPA (500 nM) interaction assay (TR-FRET, Example 136); type: biochemical; conditions: KRAS G12C-BRAF disruption
Chain of KRAS G12C-BRAF complex (P01116-2 other isoform, or with tags, fused parts or gaps G12C): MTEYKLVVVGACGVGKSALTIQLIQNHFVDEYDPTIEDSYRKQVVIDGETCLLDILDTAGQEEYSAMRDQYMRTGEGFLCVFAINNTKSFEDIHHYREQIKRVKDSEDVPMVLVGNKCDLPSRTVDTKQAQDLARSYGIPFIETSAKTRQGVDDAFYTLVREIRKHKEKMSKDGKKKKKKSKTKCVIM
Chain of KRAS G12C-BRAF complex (P62937 whole entry): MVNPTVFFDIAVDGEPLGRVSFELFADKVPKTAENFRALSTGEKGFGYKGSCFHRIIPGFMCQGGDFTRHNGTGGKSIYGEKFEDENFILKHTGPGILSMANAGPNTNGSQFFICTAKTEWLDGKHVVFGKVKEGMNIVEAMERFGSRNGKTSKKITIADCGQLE

| Compound | IC50 (SW620 cells (KRAS G12V)) | IC50 [1] | IC50 (AGS cells (KRAS G12D)) | IC50 [2] | IC50 [3] | IC50 [4] | IC50 (KRAS G12C-BRAF complex) |
| --- | --- | --- | --- | --- | --- | --- | --- |
| CO[C@@H](C)c1ncc(N2CCN(C)CC2)cc1-c1c2c3cc(cc4c3n1CCC4)-c1csc(n1)C[C@H](NC(=O)[C@H]1C[C@H]1C)C(=O)N1CCC[C@H](N1)C(=O)OCC(C)(C)C2 (atropisomer, axis not shown; (M)) [Example 33, (1S,2R)-N-[(7S,13S)-(20M)-20-[2-[(1S)-1-methoxyethyl]-5-(4-methylpiperazin-1-yl)-3-pyridyl]-17,17-dimethyl-8,14-dioxo-15-oxa-4-thia-9,21,30,31-tetrazahexacyclo[23.3.1.1^2,5.1^9,13.0^19,27.0^21,26]hentriaconta-1 (28),2,5 (31),19,25 (29),26-hexaen-7-yl]-2-methyl-cyclopropanecarboxamide] | 7.4 nM | 32.3 nM | 100 nM | 2.7 nM | 23.1 nM | 8.5 nM | 19.5 nM |
| CO[C@@H](C)c1ncc(N2CCN(CC(F)(F)F)CC2)cc1-c1c2c3cc(cc4c3n1CCC4)-c1csc(n1)C[C@H](NC(=O)[C@H]1C[C@@H]1C(F)F)C(=O)N1CCC[C@H](N1)C(=O)OCC(C)(C)C2 (atropisomer, axis not shown; (M)) [Example 21, (1S,2S)-2-(difluoromethyl)-N-[(7S,13S)-(20M)-20-[2-[(1S)-1-methoxyethyl]-5-[4-(2,2,2-trifluoroethyl)piperazin-1-yl]-3-pyridyl]-17,17-dimethyl-8,14-dioxo-15-oxa-4-thia-9,21,30,31-tetrazahexacyclo[23.3.1.1^2,5.1^9,13.0^19,27.0^21,26]hentriaconta-1 (28),2,5 (31),19,25 (29),26-hexaen-7-yl]cyclopropanecarboxamide] | 1.9 nM | 15.3 nM | 56.2 nM | 1.4 nM | 8.8 nM | 2.1 nM | 15 nM |
| CO[C@@H](C)c1ncc(N2CCN3CCCC[C@@H]3C2)cc1-c1c2c3cc(cc4c3n1CCC4)-c1csc(n1)C[C@H](NC(=O)[C@H]1C[C@@H]1c1cncnc1)C(=O)N1CCC[C@H](N1)C(=O)OCC(C)(C)C2 (atropisomer, axis not shown; (M)) [Example 103, (1S,2S)-N-[(7S,13S)-(20M)-20-[5-[(9αR)-1,3,4,6,7,8,9,9a-octahydropyrido[1,2-a]pyrazin-2-yl]-2-[(1S)-1-methoxyethyl]-3-pyridyl]-17,17-dimethyl-8,14-dioxo-15-oxa-4-thia-9,21,30,31-tetrazahexacyclo[23.3.1.1^2,5.1^9,13.0^19,27.0^21,26]hentriaconta-1 (28),2,5 (31),19,25 (29),26-hexaen-7-yl]-2-pyrimidin-5-yl-cyclopropanecarboxamide] | 0.4 nM | 1.3 nM | 5.2 nM | 0.7 nM | 2.4 nM | 0.7 nM | 6 nM |
| CO[C@@H](C)c1ncc(N2CCN(C[C@@H]3CNCCO3)CC2)cc1-c1c2c3cc(cc4c3n1CCC4)-c1csc(n1)C[C@H](NC(=O)[C@H]1[C@H](C)[C@@H]1C)C(=O)N1CCC[C@H](N1)C(=O)OCC(C)(C)C2 (atropisomer, axis not shown; (M)) [Example 119, (1r,2S,3R)-N-[(7S,13S)-(20M)-20-[2-[(1S)-1-methoxyethyl]-5-[4-[[(2S)-morpholin-2-yl]methyl]piperazin-1-yl]-3-pyridyl]-17,17-dimethyl-8,14-dioxo-15-oxa-4-thia-9,21,30,31-tetrazahexacyclo[23.3.1.1^2,5.1^9,13.0^19,27.0^21,26]hentriaconta-1 (28),2,5 (31),19,25 (29),26-hexaen-7-yl]-2,3-dimethyl-cyclopropanecarboxamide] | 0.8 nM | 3.5 nM | 4.4 nM | 1.2 nM | 6.9 nM | 1.7 nM | 9.3 nM |
| CO[C@@H](C)c1ncc(N2CCN(C)CC2)cc1-c1c2c3cc(cc4c3n1CCC4)-c1csc(n1)C[C@H](NC(=O)[C@@H]1[C@@H]3COC[C@@H]31)C(=O)N1CCC[C@H](N1)C(=O)OCC(C)(C)C2 (atropisomer, axis not shown; (M)) [Example 42, (1R,5S,6s)-N-[(7S,13S)-(20M)-20-[2-[(1S)-1-methoxyethyl]-5-(4-methylpiperazin-1-yl)-3-pyridyl]-17,17-dimethyl-8,14-dioxo-15-oxa-4-thia-9,21,30,31-tetrazahexacyclo[23.3.1.1^2,5.1^9,13.0^19,27.0^21,26]hentriaconta-1 (28),2,5 (31), 19,25 (29),26-hexaen-7-yl]-3-oxabicyclo[3.1.0]hexane-6-carboxamide] | 1.3 nM | 5.4 nM | 22.4 nM | 1.4 nM | 8.1 nM | 0.9 nM | 20.5 nM |
